From ChEMBL document CHEMBL5214927, “Recent advance on carbamate-based cholinesterase inhibitors as potential multifunctional agents against Alzheimer's disease” (Eur J Med Chem, 2022)

Assays:
Cholinesterase [1] = target: T1, Cholinesterase (Equus caballus, UniProt P81908); assay: Inhibition of horse BChE using butyrylthiocholine as substrate measured for 5 mins by Ellman's method
[2] = target: Acetylcholinesterase and butyrylcholinesterase (AChE and BChE) (Rattus norvegicus) (UniProt P37136+Q9JKC1); assay: Selectivity index, ratio of IC50 for rat AChE to IC50 for rat BChE; assay type: protein assay
Sequence of Acetylcholinesterase and butyrylcholinesterase (AChE and BChE) (Rattus norvegicus) (Q9JKC1 1-597, one chain of several): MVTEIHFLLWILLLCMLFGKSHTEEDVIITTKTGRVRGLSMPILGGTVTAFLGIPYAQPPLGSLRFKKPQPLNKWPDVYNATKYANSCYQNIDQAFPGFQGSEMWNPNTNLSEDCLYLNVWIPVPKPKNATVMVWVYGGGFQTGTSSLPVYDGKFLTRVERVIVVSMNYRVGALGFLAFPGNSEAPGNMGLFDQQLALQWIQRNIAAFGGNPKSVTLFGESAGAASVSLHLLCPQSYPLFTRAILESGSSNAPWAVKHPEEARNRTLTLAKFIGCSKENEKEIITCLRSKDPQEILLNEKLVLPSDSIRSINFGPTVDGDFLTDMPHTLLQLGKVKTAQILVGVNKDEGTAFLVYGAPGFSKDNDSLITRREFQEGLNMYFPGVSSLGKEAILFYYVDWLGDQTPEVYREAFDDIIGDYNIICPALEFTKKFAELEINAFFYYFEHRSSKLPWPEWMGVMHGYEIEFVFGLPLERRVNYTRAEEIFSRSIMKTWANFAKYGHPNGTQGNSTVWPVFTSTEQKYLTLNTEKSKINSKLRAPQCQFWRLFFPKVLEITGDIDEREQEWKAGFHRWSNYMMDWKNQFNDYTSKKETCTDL

Butyrylcholinesterase [3] = target: T2, Butyrylcholinesterase (Rattus norvegicus, UniProt Q9JKC1); assay: Inhibition of rat BChE
T2 sequence (Q9JKC1 whole entry): as the sequence (Q9JKC1 1-597, one chain of several) above

Acetylcholinesterase [4] = target: T3, Acetylcholinesterase (Rattus norvegicus, UniProt P37136); assay: Inhibition of rat AChE
T3 sequence (P37136 whole entry): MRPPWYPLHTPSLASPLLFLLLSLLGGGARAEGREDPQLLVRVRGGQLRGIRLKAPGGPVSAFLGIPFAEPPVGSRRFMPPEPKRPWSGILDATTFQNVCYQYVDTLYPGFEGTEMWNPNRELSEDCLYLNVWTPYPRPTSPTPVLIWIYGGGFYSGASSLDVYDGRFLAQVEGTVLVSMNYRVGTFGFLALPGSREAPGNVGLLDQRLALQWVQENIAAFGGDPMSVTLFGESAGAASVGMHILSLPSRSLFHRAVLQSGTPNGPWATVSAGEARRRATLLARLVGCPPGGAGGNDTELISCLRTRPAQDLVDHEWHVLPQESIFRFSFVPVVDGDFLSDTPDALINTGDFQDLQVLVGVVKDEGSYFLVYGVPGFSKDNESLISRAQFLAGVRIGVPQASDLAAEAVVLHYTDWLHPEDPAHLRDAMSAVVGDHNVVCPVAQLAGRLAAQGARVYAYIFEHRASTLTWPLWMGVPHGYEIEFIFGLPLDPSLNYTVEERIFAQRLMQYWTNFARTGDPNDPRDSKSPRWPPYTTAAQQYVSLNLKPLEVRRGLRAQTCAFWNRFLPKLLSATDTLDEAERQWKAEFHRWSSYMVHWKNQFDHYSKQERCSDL

[5] = Selectivity index, ratio of IC50 for human red blood cell AChE to IC50 for equine serum BChE
[6] = target: T4, Amine oxidase [flavin-containing] B (Homo sapiens, UniProt P27338); assay: Displacement of 14C-phenylethylamine from MAO-B (unknown origin) preincubated for 60 mins followed by substrate addition measured after 20 mins in presence of clorgyline by liquid scintillation counting method
T4 sequence (P27338 whole entry): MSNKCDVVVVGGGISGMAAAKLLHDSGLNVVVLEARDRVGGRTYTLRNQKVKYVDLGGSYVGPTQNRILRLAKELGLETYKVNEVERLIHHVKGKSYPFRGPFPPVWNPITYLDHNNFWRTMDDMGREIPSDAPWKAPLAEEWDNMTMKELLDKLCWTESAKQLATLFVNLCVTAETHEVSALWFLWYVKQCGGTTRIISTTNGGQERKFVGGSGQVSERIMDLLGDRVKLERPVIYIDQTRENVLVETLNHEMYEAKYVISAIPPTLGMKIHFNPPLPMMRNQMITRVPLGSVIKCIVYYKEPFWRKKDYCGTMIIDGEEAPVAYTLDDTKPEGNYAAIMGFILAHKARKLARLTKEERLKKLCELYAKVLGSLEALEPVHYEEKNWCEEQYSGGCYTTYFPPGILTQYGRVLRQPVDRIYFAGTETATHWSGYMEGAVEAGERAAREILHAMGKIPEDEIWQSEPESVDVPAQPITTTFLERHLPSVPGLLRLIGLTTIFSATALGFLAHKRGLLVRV

[7] = target: T5, Amine oxidase [flavin-containing] A (Homo sapiens, UniProt P21397); assay: Displacement of 14C-5-hydroxytryptamine creatinine disulfate from MAO-A (unknown origin) preincubated for 60 mins followed by substrate addition measured after 30 mins in presence of selegiline by liquid scintillation counting method
T5 sequence (P21397 whole entry): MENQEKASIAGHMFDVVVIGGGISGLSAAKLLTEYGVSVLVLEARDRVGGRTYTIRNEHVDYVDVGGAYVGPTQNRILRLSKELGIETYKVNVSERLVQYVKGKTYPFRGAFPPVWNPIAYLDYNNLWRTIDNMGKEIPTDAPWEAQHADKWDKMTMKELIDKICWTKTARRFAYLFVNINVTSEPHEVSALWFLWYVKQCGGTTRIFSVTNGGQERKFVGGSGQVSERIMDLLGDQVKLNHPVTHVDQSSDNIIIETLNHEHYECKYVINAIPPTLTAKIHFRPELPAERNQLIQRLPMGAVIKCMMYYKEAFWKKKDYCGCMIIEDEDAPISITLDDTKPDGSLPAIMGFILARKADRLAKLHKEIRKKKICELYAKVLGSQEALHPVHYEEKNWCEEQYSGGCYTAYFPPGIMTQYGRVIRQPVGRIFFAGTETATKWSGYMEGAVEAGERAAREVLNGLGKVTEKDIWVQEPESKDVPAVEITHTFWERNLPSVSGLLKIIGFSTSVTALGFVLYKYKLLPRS

Cholinesterase [8] = target: T1, Cholinesterase; assay: Inhibition of equine serum BChE using butyrylthiocholine as substrate preincubated for 60 mins by Ellman's method
Butyrylcholinesterase [9] = target: T2, Butyrylcholinesterase; assay: Inhibition of Sprague-Dawley rat serum BChE using butyrylthiocholine iodide as substrate incubated for 15 mins by Ellman's method
Acetylcholinesterase [10] = target: T3, Acetylcholinesterase; assay: Inhibition of Sprague-Dawley rat cortex AChE using acetylthiocholine iodide as substrate incubated for 15 mins in presence of iso-OMPA inhibitor by Ellman's method
Acetylcholinesterase [11] = target: Acetylcholinesterase (Electrophorus electricus, UniProt O42275); assay: Inhibition of electric eel AChE using acetylthiocholine iodide as substrate preincubated for 5 mins followed by substrate addition measured after 2 mins by Ellman's method
Sequence of Acetylcholinesterase (Electrophorus electricus, UniProt O42275) (O42275 whole entry): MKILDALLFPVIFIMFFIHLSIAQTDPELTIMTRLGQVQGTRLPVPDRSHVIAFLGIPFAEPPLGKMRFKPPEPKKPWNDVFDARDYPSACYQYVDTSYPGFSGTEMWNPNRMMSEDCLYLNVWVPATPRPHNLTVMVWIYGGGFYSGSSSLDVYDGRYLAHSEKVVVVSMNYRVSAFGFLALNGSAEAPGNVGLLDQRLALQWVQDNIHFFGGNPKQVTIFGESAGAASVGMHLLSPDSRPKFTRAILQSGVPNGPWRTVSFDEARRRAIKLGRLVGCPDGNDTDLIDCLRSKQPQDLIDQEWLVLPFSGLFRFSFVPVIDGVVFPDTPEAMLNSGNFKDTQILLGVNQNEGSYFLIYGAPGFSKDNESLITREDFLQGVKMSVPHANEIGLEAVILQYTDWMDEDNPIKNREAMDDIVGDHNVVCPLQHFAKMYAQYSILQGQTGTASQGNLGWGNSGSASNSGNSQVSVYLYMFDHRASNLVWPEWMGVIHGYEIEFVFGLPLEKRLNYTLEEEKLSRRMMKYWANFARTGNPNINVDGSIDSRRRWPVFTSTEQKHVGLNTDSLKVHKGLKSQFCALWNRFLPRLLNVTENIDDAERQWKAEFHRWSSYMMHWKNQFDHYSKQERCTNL

Acetylcholinesterase [12] = target: Acetylcholinesterase (Homo sapiens, UniProt P22303); assay: Inhibition of recombinant human AChE using acetylthiocholine as substrate preincubated for 20 mins followed by substrate addition measured after 6 mins by Ellman's method
Sequence of Acetylcholinesterase (Homo sapiens, UniProt P22303) (P22303 whole entry): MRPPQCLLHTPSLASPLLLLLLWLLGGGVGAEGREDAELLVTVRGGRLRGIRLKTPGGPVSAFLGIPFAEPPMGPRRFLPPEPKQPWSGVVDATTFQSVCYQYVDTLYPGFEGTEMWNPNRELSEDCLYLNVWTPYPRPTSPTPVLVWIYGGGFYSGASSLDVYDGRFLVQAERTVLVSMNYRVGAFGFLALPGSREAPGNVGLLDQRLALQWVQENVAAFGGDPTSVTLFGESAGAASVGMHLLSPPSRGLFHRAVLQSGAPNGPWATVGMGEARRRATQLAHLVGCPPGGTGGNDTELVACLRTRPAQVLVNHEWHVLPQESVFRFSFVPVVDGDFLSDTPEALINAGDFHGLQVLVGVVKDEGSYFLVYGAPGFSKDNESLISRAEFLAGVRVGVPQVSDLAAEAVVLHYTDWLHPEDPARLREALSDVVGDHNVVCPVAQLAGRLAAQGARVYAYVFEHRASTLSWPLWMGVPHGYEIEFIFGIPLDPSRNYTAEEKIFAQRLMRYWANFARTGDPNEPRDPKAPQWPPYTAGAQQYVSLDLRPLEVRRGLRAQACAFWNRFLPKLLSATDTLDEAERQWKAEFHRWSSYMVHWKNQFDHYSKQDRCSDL

T1 sequence (P81908 whole entry): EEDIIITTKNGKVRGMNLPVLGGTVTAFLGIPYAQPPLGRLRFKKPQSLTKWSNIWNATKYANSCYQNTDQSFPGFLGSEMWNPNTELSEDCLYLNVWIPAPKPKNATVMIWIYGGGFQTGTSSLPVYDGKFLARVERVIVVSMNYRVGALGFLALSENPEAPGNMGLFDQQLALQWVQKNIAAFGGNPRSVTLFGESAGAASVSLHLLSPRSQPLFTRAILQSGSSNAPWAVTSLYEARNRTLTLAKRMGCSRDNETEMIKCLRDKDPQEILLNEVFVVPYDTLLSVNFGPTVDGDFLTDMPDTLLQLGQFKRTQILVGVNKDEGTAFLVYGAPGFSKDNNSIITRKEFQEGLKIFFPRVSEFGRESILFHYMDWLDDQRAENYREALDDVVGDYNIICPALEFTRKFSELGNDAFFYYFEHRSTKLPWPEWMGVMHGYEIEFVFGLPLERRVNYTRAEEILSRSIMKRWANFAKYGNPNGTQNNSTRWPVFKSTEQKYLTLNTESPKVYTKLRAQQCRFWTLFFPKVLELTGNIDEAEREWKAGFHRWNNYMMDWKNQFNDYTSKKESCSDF

`O=C(Nc1ccccc1)Oc1cccc(CN2CCN(c3ccccc3)CC2)c1` gave an IC50 (Cholinesterase [1]) of 2000 nM.

Work on `CN(C)C(=O)Oc1cc(OC(=O)N(C)C)cc(C(O)CNC(C)(C)C)c1` (configuration not stated) [BAMBUTEROL] yielded a Ratio IC50 [2] of 10000, an IC50 (Butyrylcholinesterase [3]) of 3 nM and an IC50 (Acetylcholinesterase [4]) of 30000 nM.

In the case of `C#CCN(C)C(C)Cc1cccc(OC(=O)N(C)CC)c1` (configuration not stated), the Ratio IC50 [5] is reported as 153, the IC50 [6] is reported as 100 nM and the IC50 [7] is reported as 120 nM. It also gave an IC50 (Cholinesterase [8]) of 1500 nM.

Work on `O=C(Oc1ccc(/C=C/c2cc(OC(=O)N3CCN(Cc4ccccc4)CC3)cc(OC(=O)N3CCN(Cc4ccccc4)CC3)c2)cc1)N1CCN(Cc2ccccc2)CC1` yielded an IC50 (Butyrylcholinesterase [9]) of 1130 nM and an IC50 (Acetylcholinesterase [10]) of 4110 nM.

With `CCOC(=O)Nc1ccc(N2CCN(c3ccccc3OC)CC2)cc1` the IC50 (Acetylcholinesterase [11]) was 93.5 nM.

`CC[C@@]1(c2cccc(OC(=O)Nc3ccccc3)c2)CCCCN(C)C1` gave an IC50 (Acetylcholinesterase [12]) of 274 nM.
